# Data from patent publication US20240294478A1, “ANTI-CANCER COMPOUNDS AND METHODS OF USE” (YALE UNIVERSITY, priority 2021, published 2024).
# Where two headings read alike, the source gives them in different places.
# Columns and labels:
# [1] = test system: LN229 MGMT+/MMR+ cells; assay: Short-term cell viability assay, LN229 MGMT+/MMR+; type: cell-based; conditions: Homo sapiens, read-out: IC50 against LN229 cell lines, MGMT+ MMR+
# Method: (§1) LN229 MGMT- and MGMT+ cell lines were a gift from B. Kaina (Johannes Gutenberg University Mainz, Mainz, Germany) and grown in Gibco® Duilbecco's Modified Eagle Medium with 10% fetal bovine serum (DMEM). For each compound tested, the relationship between MGMT status and MMR status and compound activity, in terms of IC50 values ([…]), was determined by the following method. On day 1, LN229 isogenic cells of varying MGMT and MMR status were seeded in 96 well format at a density of 2000 cells/well in 100 μL of DMEM media and allowed to adhere overnight. On day 2, a drug master plate was made with 100×the desired maximal concentration of test compound and serially diluted by 2 until 100×the minimal desired concentration, with one DMSO control. Then daughter plates were created with varied concentrations from 3-times the minimal concentration to 3-times the maximal desired concentration. Afterwards, 50 μL of daughter drug plate was added to 100 μL of the seeded cells for a final concentration of 1×in triplicate. Cells were allowed to grow for 6 days. On day 7, the cells were fixed, and stained with Hoechst nuclear dye and imaged to determine growth inhibition.
# (§2) For each compound tested, the relationship between MGMT status and MMR status and compound activity, in terms of IC50 values (in μM), was determined. In addition, for each compound, the therapeutic index (TI) was calculated, according to the equation MGMT TI=IC50 (MGMT+/MMR+) divided by IC50 (MGMT−/MMR+). The T1 indicates the efficacy of a compound in treating the targeted MGMT-cancer cells as compared to potential for the same compound to damage, or have adverse effects against, normal cells which are MGMT+cells, The higher the value of the TI, the safer the compound is. […] MMR RI (resistance index)=IC50 (MGMT−/MMR−) divided by IC50 (MGMT−/MMR+). The higher the value of the RI, the less likely that resistance to the compound will develop.
# (§3) Short-term Cell Viability Assay. Cells were seeded in 96-well plates at 1000 or 2000 cells/well and allowed to adhere at 23° C. for 60 min and then incubated overnight at 37° C. Cells were treated with indicated concentrations of compounds in triplicate for 4-6 days prior to fixation with 3.7% paraformaldehyde and nuclear staining with 1 μg/mL Hoechst 33342 dye. Cells were imaged on a Cytation 3 imaging reader (BioTek) and quantified using CellProfiler software. For in vitro short-term growth delay experiments, IC50 values were determined from the nonlinear regression equation, [inhibitor] vs normalized response with variable slope.
# [2] = test system: LN229 MGMT+/MMR− cells; assay: Short-term cell viability assay, LN229 MGMT+/MMR- (shRNA targeting MSH2); type: cell-based; conditions: Homo sapiens
# Method: as §1, §2, §3
# [3] = test system: LN229 MGMT− shMSH6 cells; assay: Short-term viability assay, LN229 MGMT- shMSH6; type: cell-based, human; conditions: for IC50: Homo sapiens, LN-229, Table III, read-out: IC50 against LN229 cell lines, MGMT− MMR−; for MGMT− RI: Table III
# Method: (§4) The activity of KL-50 in MGMT-LN229 cells engineered to lack expression of other key MMR proteins including MSH6, MLH1, PMS2, and MSH3 was also confirmed. Western blotting was performed in LN229 MGMT+/−cells with stable expression of shRNA targeting MSH6, MLH1, PMS2, or MSH3 to confirm depletion of the shRNA targets. In shMSH6 cells, there was reduced expression of MSH2, and in shMLH1 cells, there was loss of PMS2, due to destabilization in the setting of loss of their heterodimeric partners. GAPDH serves as loading control. […] Short-term viability assay curves for KL-50 in LN229 MGMT+/−, MMR+/shMSH6 cells. […] Short-term viability assay curves for KL-50 in LN229 MGMT+/−, MMR+/shMLH1 cells. […] Short-term viability assay curves for KL-50 in LN229 MGMT+/−, MMR+/shPMS2 cells. […] Short-term viability assay curves for KL-50 in LN229 MGMT+/−, MMR+/shMSH3 cells.
# MMR Protein shRNA Knockdown. pGIPZ lentiviral shRNA vectors targeting MSH2, MSH6, MLH1, PMS2, and MSH3 were purchased from Horizon Discovery (Table IV). Lentiviral particles were produced in HEK293T cells via co-transfection with lentiviral shRNA plasmid, pCMV-VSV-G envelope plasmid (Addgene, #8454) and psPAX2 packaging plasmid (Addgene, #12260), using Lipofectamine 3000 Reagent (Invitrogen, L3000001) per manufacturer's protocol. Viral particles were harvested 48 h post-transfection and used to transduce LN229 MGMT+/−cells in the presence of 8 μg/mL polybrene. Selection of pooled cells with lentiviral expression was established with 1 μg/mL puromycin 48 h post-transduction for 3 to 4 days. Single cell cloning was performed by limiting dilution and protein knockdown was confirmed by western blotting.
# as §3
# [4] = test system: LN229 MGMT+ shPMS2 cells; assay: Short-term viability assay, LN229 MGMT+ shPMS2; type: cell-based; conditions: Homo sapiens, LN-229, Table III, read-out: IC50 against LN229 cell lines, MGMT MMR−
# Method: as §4
# MMR Protein shRNA Knockdown. pGIPZ lentiviral shRNA vectors targeting MSH2, MSH6, MLH1, PMS2, and MSH3 were purchased from Horizon Discovery (Table IV). […]
# Short-term Cell Viability Assay. […] Cells were imaged on a Cytation 3 imaging reader (BioTek) and quantified using CellProfiler software. For in vitro short-term growth delay experiments, IC50 values were determined from the nonlinear regression equation, [inhibitor] vs normalized response with variable slope.
# [5] = test system: HCT116 cells complemented with chromosome 3 carrying wildtype MLH1 (+Chr3); assay: Short-term viability assay, HCT116 +Chr3 cells +/- O6BG; type: cell-based, human; conditions: with or without 10 μM O6BG pre-treatment
# Method: FIG. 1B: Short-term viability assay curves for KL-50 in DLD1 MSH6-deficient cells pre-treated with 0.01% DMSO control (CTR) or 10 μM O^6BG (+O^6BG) for 1 h prior to KL-50 addition. […] Short-term viability assay curves for (FIG. 1E) KL-50 in HCT116 MLH1−/−cells or (FIG. 1F) HCT116 cells complemented with chromosome 3 carrying wildtype MLH1 (+Chr3) pre-treated with 0.01% DMSO control or 10 μM O^6BG (+O^6BG) for 1 h prior to KL-50 addition. […] For these figures, points, mean; error bars, SD; n>3 technical replicates.
# as §3
# [6] = LN-229, Table II, read-out: IC50 against LN229 cell lines, MGMT MMR−
SMILES,"IC50 ([1]; LN-229, Table III, shRNA None)","IC50 ([1]; LN-229, Table II)","IC50 [2, 6]",IC50 [3],MGMT− RI [3],IC50 [4],cytotoxicity in HCT116 MLH1-complemented cells [5],"IC50 ([1]; LN-229, 144 h, Table 1, 6 days growth, Hoechst nuclear count)","IC50 ([2]; LN-229, 144 h, Table 1, 6 days growth, read-out: IC50 against LN229 cell lines, MGMT+ MMR−)"
NC(=O)c1ncn2c(=O)n(CCF)nnc12 [KL-50],285 ± 46 µM,587 ± 166 µM,504 ± 55 µM,6.6 ± 0.4 µM,0.5,215 ± 16 µM,induced selective tumor cell killing specifically in the setting of O^6BG-induced MGMT suppression,–,–
"Cn1nnc2c(C(N)=O)ncn2c1=O [TMZ, 4-methyl-5-oxo-2,3,4,6,8-pentazabicyclo[4.3.0]nona-2,7,9-triene-9-carboxamide, reference compound]",697 ± 60 µM,742 ± 468 µM,1000 ± 107 µM,950 ± 68 µM,186,700 ± 58 µM,"enhanced sensitivity to TMZ, which was further potentiated by MGMT depletion",> 100 µM,> 100 µM
